Measured values as given in patent publication US20100130598A1, “METHODS FOR INDUCING PROGRAMMED CELL DEATH” (Novogen Research Pty Ltd., priority 2008, published 2010).
≈ marks a conversion by molar mass, not a printed value.

How the values were obtained:
EOC cells [1] = experiment: Mitochondrial depolarization using JC-1 (flow cytometry); type: cell-based, human; settings: 10 pg/ml (as printed, FIG. 5 legend)
Source text: Assay of mitochondrial depolarization using JC-1. After treatment, cells were trypsinized and stained with JC-1 dye using the Mitocapture™ mitochondrial apoptosis detection kit (BioVision Research Products, Mountain View, Calif.) according to manufacturer's instruction. Data was acquired using BD LSR II System and analyzed using BD FACSDiva Software™.

EOC cells [2] = experiment: Cell viability assay (CellTiter 96 AQueous One); type: cell-based, human
Source text: Cell lines and culture conditions. Established human EOC cell lines, A2780 and A2780/CP70 (gifts from Dr. T C Hamilton) (Behrens et al, 1997) were propagated in RPMI plus 10% fetal bovine serum (Gemini Bio-Products, Woodland, Calif.). Primary EOC cell lines were isolated from malignant ovarian ascites or explanted from ovarian tumors and cultured as previously described (Alvero et al, 2006). Purity of the EOC cells was 100% as determined by immuno-staining for cytokeratin 7 antigen. All cell lines were grown at 37° C. in a 5% CO2 atmosphere.
Cell viability assay. Cell viability was determined as previously reported (Alvero et al., 2006). Briefly, cells (5×10^3) were plated in triplicate wells in a […] volume per well of a 96-well microtiter plate (BD Biosciences/Pharmingen, San Diego, Calif.). The cells were grown to 70% confluence and then incubated in reduced-serum phenol-depleted Opti-MEM medium (Invitrogen-GIBCO, Carlsbad, Calif.) for 4 h prior to treatment. Compound 1 (Novogen, Inc., NSW, Australia) was added to the medium from 10 mg/ml stock to give various final concentrations as described in the results section. Following 24 h treatment, cell viability was evaluated using the CellTiter 96® AQueous One Solution Cell Proliferation Assay (Promega Corporation, Madison, Wis.) according to the manufacturer's instructions. Optical densities of the samples were measured at 490 nm using an automatic microplate reader (Model 550, Bio-Rad, Hurcules, Calif.). The values from the treated cells were compared with the values generated from the untreated control and reported as percent viability. Each experiment was done in triplicate.
For experiments using the caspase inhibitor, Z-VAD-FMK (Sigma Aldrich, St. Louis, Mo.), the inhibitor was added to the cultures 30 mins prior to treatment to yield a final concentration of 20 μM. […]

[3] = tested on: ribosomal p70 S6 kinase (p-S6k); experiment: Western blot of EOC whole cell lysates for p-S6k; type: cell-based, human; settings: EOC cells, 10 g/ml (as printed, FIG. 3 legend), 15 mins post-treatment
Source text: Protein preparation and cellular fractionation. After drug treatment, protein was extracted and measured as previously described (Alvero et al, 2006). For separation of the cytoplasmic and mitochondrial fractions, cell pellets were processed using the ApoAlert™ Cell Fractionation Kit (BD Biosciences, San Jose, Calif.) according to the manufacturer's instructions. For separation of the cytoplasmic and nuclear fractions, pellets were processed using NE-PER Nuclear and Cytoplasmic Extraction (Pierce Biotechnology, Inc., Rockford, Ill.).
SDS-PAGE and Western blots. Cell lysates (20 μg protein) were denatured in sample buffer (2.5% SDS, 10% glycerol, 5% β-mercapto-ethanol, 0.15 M Tris (pH=6.8) and 0.01% bromophenol blue) and subjected to 12% SDS-PAGE as previously described (Kamsteeg et al, 2003). […]

8 phospho-proteins = experiment: Analysis of phospho-proteins using xMAP technology (Beadlyte 8-plex); type: cell-based, human; settings: EOC cells, 10 μg/ml
Source text: Analysis of phoshpo-proteins using xMAP technology. After treatment, cells were lysed and lysates were used to measure the phosphorylation status of 8 proteins using the Beadlyte® 8-plex Multi-Pathway Signaling kit (Millipore, Billerica, Mass.) according to manufacturer's instructions. Data was acquired using the BioPlex System (BioRad, Hercules, Calif.).

[4] = tested on: phospho-S6 kinase (p-S6K); experiment: Western blot of lysed xenograft tumors for p-S6k; type: in vivo, NCR nude mice; settings: tumors from treated animals vs vehicle control
Protocol: SDS-PAGE and Western blots. Cell lysates (20 μg protein) were denatured in sample buffer (2.5% SDS, 10% glycerol, 5% β-mercapto-ethanol, 0.15 M Tris (pH=6.8) and 0.01% bromophenol blue) and subjected to 12% SDS-PAGE as previously described (Kamsteeg et al, 2003). The following antibodies and concentrations were used: mouse anti-XIAP (BD, 1:1,000), rabbit anti-MAP LC3 (1:200), rabbit anti-actin (Sigma, 1:10,000), rabbit anti-phosphorylated Akt (Cell Signaling, 1:1,000), rabbit anti-Akt (Cell Signaling, 1:1000), rabbit anti-phosphorylated mTOR (Cell Signaling, 1:1000), rabbit anti-mTOR (Cell Signaling, 1:1000), rabbit anti-cytochrome c (Clontech Laboratories, Inc, Mountainview, Calif., 1:100), rabbit anti-Omi (R&D Systems, Minneapolis, Minn., 1:5000), rabbit anti-Bid (Cell Signaling, 1:1000), mouse anti-Bax (BD Pharmingen, 1:250), rabbit anti-VDAC (Sigma Aldrich, 1:2000), mouse anti-Bcl2 (BD Pharmingen, 1:500), rabbit anti-AIF (Sigma Aldrich, 1:1000), rabbit anti-EndoG (Sigma Aldrich, 1:1000), mouse anti-topoisomerase I (BD Pharmingen, 1:10,000). Proteins were visualized using enhanced chemiluminescence (Pierce, Rockford Ill.).
Mouse xenograft studies. […] Tumor size was determined by caliper measurements and anti-tumor activity was analyzed with respect to maximal tumor inhibition (treated/control, T/C) as described previously (Kamsteeg et al, 2003).

MIAPaCa-2 cells = experiment: Mitochondrial membrane potential by FACS (JC-1), MIAPaCa-2; type: cell-based, human; settings: MIAPaCa-2, dose-dependent, 48 hrs of treatment
Protocol: Cells. Human pancreatic cell lines HPAC, MIAPaCa-2 and PANC-1 were obtained from the ATCC. (Manassas, Va.). The cells were maintained in DMEM media with Gln and high glucose (Mediatech, Manassas, Va.) with 10% fetal bovine serum (FBS, HyClone, Logan, Utah) and pencillin/streptomycin.
FACS Analysis. Apoptosis was measured by FACS analysis using Annexin-V-FITC and propidium iodide (PI) (Biovision, Mountain View, Calif.) as probes (Ahn et al., 2003). Mitochondrial membrane potential was measured by FACS analysis using JC-1 (Biovision) as a probe (Ahn et al., 2003). Cell cycle was analyzed on ethanol-fixed, RNaseA-treated cells staining with PI. In each spectrum, 10,000 gated events were recorded and analyzed with a FACSCalibur (BD Biosciences. San Jose, Calif.). All experiments were done in triplicate, error bars represent one standard deviation. Caspase inhibitor I (zVAD-fmk) was obtained from Calbiochem.

Structure (SMILES) | cells having depolarized mitochondria (EOC cells [1]; 1 h) | cells having depolarized mitochondria (EOC cells [1]; 4 h) | effect of autophagy inhibitor 3-MA on compound-induced cell death (EOC cells [2]; Compound 1 10 μg/ml, 3 MA (10 μM)) | GI50 (EOC cells [2]; Homo sapiens, primary EOC cultures, paclitaxel-sensitive and paclitaxel-resistant (R182, R456), 24 h, read-out: GI50 (reduction in percentage of viable cells)) | impact of pan-caspase inhibitor Z-VAD-FMK on compound-induced cell death (EOC cells [2]; Z-VAD-FMK 20 μM, increasing concentrations of Compound 1, 24 h) | p-S6k level [3] | ERK, pJNK, pSTAT5a/b, and pCREB (xMAP phospho-protein panel) (8 phospho-proteins) | p-S6k (xMAP phospho-protein panel) (8 phospho-proteins) | pIκB, pSTAT3, and p38 (xMAP phospho-protein panel) (8 phospho-proteins) | p-S6k in tumors [4] | mitochondrial depolarization (MIAPaCa-2 cells)
COc1ccc(C2c3ccc(O)c(C)c3OCC2c2ccc(O)cc2)cc1 (centres unmarked) [Compound 1, 3-(4-hydroxyphenyl)-4-(4-methoxyphenyl)-8-methylchroman-7-ol] | 30% | 50% | not able to inhibit | 5 to 10 µg/mL (≈ 13.8 to 27.6 µM) | no impact | down-regulated | Up-regulation | down-regulates | minimal or no effect | significant decrease | 
COc1ccc(C2c3ccc(O)cc3OCC2c2ccc(O)cc2)cc1 (centres unmarked) [Compound 10, 3-(4-hydroxyphenyl)-4-(4-methoxyphenyl)chroman-7-ol] |  |  |  |  |  |  |  |  |  |  | depolarized
